Experimental data: patent publication US6489321B1, “Nonpeptide substituted benzothiazepines as vasopressin antagonists” (Ortho-McNeil Pharmaceutical, Inc., priority 1999, dated 2002)

Key:
vasopressin V1a receptor = vasopressin V1a receptor (Homo sapiens, UniProt P37288); assay: In-vitro vasopressin receptor binding assay, V1a
cloned human V2 receptor = target: T1, cloned human V2 receptor (Homo sapiens, UniProt P30518); assay: In-vitro vasopressin receptor binding assay, V2; settings: 3H-arginine-8-vasopressin
T1 construct: expressed in transfected cells
T1 sequence (P30518 whole entry): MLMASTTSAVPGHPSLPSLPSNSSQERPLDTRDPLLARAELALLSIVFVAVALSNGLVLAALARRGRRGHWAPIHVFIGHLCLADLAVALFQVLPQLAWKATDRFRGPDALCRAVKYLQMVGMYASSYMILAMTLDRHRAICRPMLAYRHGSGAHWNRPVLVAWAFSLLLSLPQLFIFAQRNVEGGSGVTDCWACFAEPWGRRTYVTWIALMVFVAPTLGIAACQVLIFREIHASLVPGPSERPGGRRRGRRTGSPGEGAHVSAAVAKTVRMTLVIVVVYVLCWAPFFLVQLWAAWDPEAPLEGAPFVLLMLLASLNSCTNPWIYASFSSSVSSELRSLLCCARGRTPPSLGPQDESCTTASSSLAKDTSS
Method: Assay buffer is 50 mM Tris-Cl, 5 mM MgC12, 0.1% BSA (pH 7.5) containing 5 ug/ml of aprotinin, leupeptin, pepstatin, 50 ug/ml bacitracin, and 1 mM Pefabloc. H3 vasopressin is ^3H-arginine-8-vasopressin (68.5 Ci/mmol, final concentration in assay is 0.65-0.75nM). Into wells of 96-well round bottom polypropylene plates are added buffer, test compound, membrane (containing cloned human V2 receptor), and H3 vasopressin. The reaction plates are allowed to sit at room temperature for one hour. The samples are filtered through Unifilter GF/C plates (presoaked in 0.3 polyethyleneimine). The plates are washed 5 times with cold physiological saline containing 0.05% Tween 20. After drying, the bottom of the filter plates are sealed and 0.025 ml of Microscint-20 is added to each filter. The top of the plate is sealed, and the plate is counted. Non-specific binding is determined by the addition of 1.25 uM arginine-8-vasopressin in those wells. %Inh. is [formula]

vasopressin V1a receptor, sequence (P37288 whole entry): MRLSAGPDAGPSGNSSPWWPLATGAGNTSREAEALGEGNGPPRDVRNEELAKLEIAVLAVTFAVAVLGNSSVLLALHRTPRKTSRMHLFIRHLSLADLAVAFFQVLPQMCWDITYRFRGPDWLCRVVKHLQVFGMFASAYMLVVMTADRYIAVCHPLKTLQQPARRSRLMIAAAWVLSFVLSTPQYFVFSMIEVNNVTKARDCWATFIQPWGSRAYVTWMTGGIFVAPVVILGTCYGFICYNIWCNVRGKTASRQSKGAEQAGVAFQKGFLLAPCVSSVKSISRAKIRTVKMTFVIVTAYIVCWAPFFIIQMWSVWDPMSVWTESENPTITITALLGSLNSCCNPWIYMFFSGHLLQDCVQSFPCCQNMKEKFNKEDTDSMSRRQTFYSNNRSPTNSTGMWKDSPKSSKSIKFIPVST

inhibition at 0.1 µM (vasopressin V1a receptor; 0.1 μM test compound, read-out: Receptor Binding (% Inh. @ concentration in μM) V1a) [%]	IC50 (cloned human V2 receptor; footnote 1: IC50 values (μM)) [µM]	melting point [°C]	Receptor Binding (% Inh. @ concentration in μM) V1a (vasopressin V1a receptor; 1 μM test compound) [% @ 1]	Receptor Binding (% Inh. @ concentration in μM) V2 (cloned human V2 receptor; 1 μM test compound) [% @ 1]	Compound
16	0.004	204 to 208	–	–	O=C(O)CC1CCN(C(=O)c2ccc(NC(=O)c3ccccc3-c3ccccc3)cc2)c2ccccc2S1 (centres unmarked) [Compound 29, 2-Carboxymethyl-5-(4-(2-phenylbenzolylamino)benzoyl)-1,5-benzothiazepine]
–	–	–	54	33	Cc1ccccc1C(=O)Nc1ccc(CN2C(=O)CC(CCO)Sc3ccccc32)cc1 (centres unmarked) [Compound 22, 2-(2-Hydroxyethyl)-5-(4-(2-methylbenzoylamino)benzyl)-1,5-benzothiazepine-4-one]
